Reference: PubChem BioAssay (NCI)
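Values below derive from 48-hour exposures of cells grown in 96-well plates, with endpoints linearly interpolated between the two concentrations bracketing the appropriate inhibition level. GI50 marks 50% less growth. TGI: concentration producing complete growth inhibition.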

Tests used:
Assay in all cases: NCI tumour cell line growth inhibition, 48 h
[1] = system: A498 renal
[2] = system: A549 NSCLC
[3] = system: COLO 205 colon
[4] = system: HCC-2998 colon
[5] = system: HL-60(TB) leukemia
[6] = system: OVCAR-4 ovarian
[7] = system: RPMI-8226 leukemia
[8] = system: SF-268 CNS
[9] = system: TK-10 renal
[10] = system: UACC-62 melanoma

SMILES	TGI [1]	TGI [2]	TGI [3]	TGI [4]	TGI [5]	TGI [6]	TGI [7]	TGI [8]	TGI [9]	TGI [10]	GI50 [1]	GI50 [2]	GI50 [3]	GI50 [4]	GI50 [5]	GI50 [6]	GI50 [7]	GI50 [8]	GI50 [9]	GI50 [10]
CC1(Cl)C(=O)NC(=O)N(C2CC(N=[N+]=[N-])C(CO)O2)C1N=[N+]=[N-] (centres undefined)	> 100 µM	> 100 µM	> 100 µM	> 100 µM	> 100 µM	> 100 µM	> 100 µM	> 100 µM	> 100 µM	> 100 µM										
COc1ccc2[nH]c3c(C)c4c(c(C)c3c2c1)CN(C)CC4	32.2 µM	33.9 µM	31.2 µM	31.4 µM	4.65 µM	34.8 µM	93.3 µM	48.3 µM	42.9 µM	34.8 µM										
Cc1nn(CN2CCN(C)CC2)c(=S)n1/N=C/c1cccc2ccccc12	34.7 µM	46.7 µM	26.6 µM	39 µM	37 µM	19.4 µM	39.9 µM	68.2 µM	50.1 µM	33.9 µM	16.7 µM	20.6 µM	10.8 µM	20.9 µM	16.7 µM	2.11 µM	17.4 µM	24.5 µM	20.5 µM	17.5 µM
OCCC1(O)CCC(O)CC1 (centres undefined)	> 100 µM	> 100 µM	> 100 µM	> 100 µM	> 100 µM	> 100 µM	> 100 µM	> 100 µM	> 100 µM	> 100 µM										
CC1OC(n2cc(F)c(=O)[nH]c2=O)CCC1O (centres undefined)	> 100 µM	> 100 µM	> 100 µM	> 100 µM	> 100 µM	> 100 µM	> 100 µM	> 100 µM	> 100 µM	> 100 µM										
CNC(=O)OCc1c(COC(=O)NC)c(-c2ccc(Cl)c(Cl)c2)n2c1SCC2	2.07 µM	> 88 µM	26.7 µM	30 µM	25.4 µM	25.5 µM	39.7 µM	32.9 µM	19.1 µM	8.94 µM						3.59 µM				
COc1ccc(C2=NN(C(=O)c3cc(OC)c(OC)c(OC)c3)C(c3ccc(C#N)cc3)C2)cc1OC (centres undefined)	4.34 µM	> 100 µM	4.03 µM	6.63 µM	6.01 µM	> 65.1 µM	> 100 µM	> 66.6 µM	> 45 µM	> 53.1 µM	0.374 µM	2.32 µM	1.47 µM	2.16 µM	1.85 µM	3.41 µM	3.54 µM	2.52 µM	3.65 µM	0.737 µM
N#C/C(=C1C=C/C(=N/O)C(Br)=C/1)c1ccccc1	16.7 µM	> 100 µM	54.7 µM	20.7 µM	6.31 µM	37.9 µM	11.5 µM	11.7 µM	16.5 µM	16 µM	2.57 µM	3.48 µM	6.89 µM	5.02 µM	2.16 µM	5.41 µM	0.36 µM	2.18 µM	5.02 µM	2.97 µM
CC1OC(O[C@H]2C[C@@H](O)[C@]3(CO)[C@H]4[C@H](O)C[C@]5(C)[C@@H](C6=CC(=O)OC6)CC[C@]5(O)[C@@H]4CC[C@]3(O)C2)C(O)C(O)C1O (some centres undefined)	39 µM	39 µM	33.7 µM	36.6 µM	41.6 µM	33.1 µM	54.5 µM	33.5 µM	30 µM	32.4 µM	20.4 µM	21.2 µM	18.5 µM	20.2 µM	21 µM	17.3 µM	26.5 µM	18.9 µM	16.2 µM	17.6 µM
CCOc1cccc(/C=N/NC(=O)c2ccccc2Nc2ccnc(C(F)(F)F)c2)c1O	> 74.8 µM	> 100 µM	36.9 µM	> 44.2 µM	0.621 µM			> 100 µM	> 100 µM	14.7 µM	20.1 µM	1.64 µM	0.347 µM	0.398 µM	0.253 µM	0.18 µM	0.332 µM	0.599 µM	0.567 µM	0.407 µM
COc1ccc(OC)c(NC(=O)C(=O)C(C(C)=O)c2nc3ccc(Cl)cc3[nH]c2=O)c1 (centres undefined)	> 50 µM	> 50 µM	> 50 µM	> 50 µM	> 50 µM	> 50 µM	> 50 µM	> 50 µM	> 50 µM	> 50 µM										
CCCCCCCCCCCCCC(=O)OC1CC(=O)OC1CO (centres undefined)	> 100 µM	> 100 µM	> 100 µM	> 100 µM	63.9 µM	> 100 µM	> 100 µM	> 100 µM	> 100 µM	51.1 µM										
O=C(NCCOCCOCCNc1cccc2c1C(=O)N(C1CCCNC1=O)C2=O)c1cc2c(o1)C(=O)c1ccccc1C2=O (centres undefined)	3.21 µM	4.8 µM	4.12 µM	4.02 µM	6.78 µM	2.73 µM	14.1 µM	6.35 µM	7.14 µM	2.99 µM	1.77 µM	2.11 µM	2.1 µM	2.01 µM	2.38 µM	1.41 µM	3.29 µM	2.39 µM	3.39 µM	1.37 µM
